What was measured:
[1] = test system: HIV-1 infected adult subjects; test: Study 202 biomarkers of inflammation; assay type: in vivo, human
Procedure: As an exploratory analysis, levels of inflammation biomarkers MCP-1, sCD14, high sensitivity C-reactive protein [hs-CRP], interleukin-6 [IL-6], D-dimer, and fibrinogen) were measured. Baseline values and changes from baseline at Week 24 and Week 48 of MCP-1, sCD14, hs-CRP, IL-6, D-dimer, and fibrinogen are summarized in Table 22.
The sCD14 samples were originally analyzed in 2 separate batches: Batch 1 included samples leading up to the Week 24 primary analysis and Batch 2 included Week 32 and Week 48 (end of study) samples. A repeat analysis of archived samples all analyzed in one batch was conducted for consistency in analysis across time points. To control for the effects of covariates, a linear mixed-model repeated-measures analysis was conducted on the changes from baseline in sCD14 (analysis dated September 2013).

[2] = test system: mouse UUO model of renal fibrosis; test: Mouse unilateral ureter occlusion (UUO) model of renal fibrosis; assay type: in vivo, CD-1 mice; conditions: for Reduction of UUO-induced increase in composite Collagen Volume Fraction (CVF): ±SEM
Procedure: Test animals were allocated to weight-matched treatment groups on the day prior to the surgical procedure (Day −1). Male CD-1 mice (N=51; age, 7-8 weeks) underwent either sham surgery or total ligation of the right ureter, i.e. UUO, via aseptic laparotomy (FIG. 5). […] Another group received the anti-transforming growth factor TGF-β1 antibody, compound 1D11 (positive control) at 3 mg/kg/day from Days −1 to 4, injected intraperitoneally once daily, and vehicle control from Days 0 to 5. […] On Day 5, animals were anaesthetised, blood and tissues were collected prior to sacrifice.
Study endpoints included: a) body and kidney weights; b) fibrosis in obstructed kidney evaluated via histological quantitative image analysis of picrosirius red staining (ten images/depth/kidney obtained and assessed in a blinded fashion using light microscopy [at 200×] to enable sampling of 60-70% of the renal cortical area) and quantified by a composite Collagen Volume Fraction (CVF [% total area imaged]) score expressed as the average positive stain across three anatomically distinct (200-250 μM apart) tissue sections, or depths, from the obstructed kidney; c) hydroxyproline content of frozen renal cortical tissue biopsies as assessed by biochemical analyses; d) mRNA expression of profibrotic and inflammatory biomarkers (including MCP-1, Collagen 1a1, Collagen 3α1, TGF-β31, Fibronectin-1, α-smooth muscle actin (α-SMA) and connective tissue growth factor-1 (CTGF-1); assessed via Luminex® (Life Technologies™, Carlsbad, Calif., USA) assay with relative expression normalised to HPRT (hypoxanthine phosphoribosyltransferase).
Data are expressed as mean±standard error of mean (SEM). Statistical analyses were performed using GraphPad Prism® (GraphPad Software, Inc., San Diego, Calif., USA). Treatment differences between sham-surgery+vehiclecontrol and UUO+vehicle-control groups, and between UUO+vehicle-control and UUO+compound-1D11 (positive control) groups, were analysed by unpaired t-Test. Treatment differences between UUO+vehicle-control and CVC-dose groups were analysed by one-way ANOVA (analysis of variance) with Dunnett's test (post-hoc).

[3] = CVC 7 and 20 mg/kg/day, compound 1D11 3 mg/kg/day, versus UUO+vehicle-control

CCCCOCCOc1ccc(-c2ccc3c(c2)C=C(C(=O)Nc2ccc([S@@+]([O-])Cc4cncn4CCC)cc2)CCCN3CC(C)C)cc1 [CVC, (S)-8-[4-(2-Butoxyethoxy)phenyl]-1-isobutyl-N-(4-{[(1-propyl-1H-imidazol-5-yl)methyl]sulfinyl}phenyl)-1,2,3,4-tetrahydro-1-benzazocine-5-carboxamide]
sCD14 (original values) change from baseline, mean ([1]; CVC 100 mg, Week 12): -140000 pg/mL | sCD14 (original values) change from baseline, median ([1]; CVC 100 mg, Week 12): -160000 pg/mL | D-dimer change from baseline, mean ([1]; CVC 100 mg, Week 24): -32 ng/mL | D-dimer change from baseline, median ([1]; CVC 100 mg, Week 24): -1.0 ng/mL | Fibrinogen change from baseline, mean ([1]; CVC 100 mg, Week 24): -3 mg/dL | Fibrinogen change from baseline, median ([1]; CVC 100 mg, Week 24): -14 mg/dL | IL-6 change from baseline, mean ([1]; CVC 100 mg, Week 24): 0.42 pg/mL | IL-6 change from baseline, median ([1]; CVC 100 mg, Week 24): 0.00 pg/mL | MCP-1 change from baseline, mean ([1]; CVC 100 mg, Week 24): 493 pg/mL | MCP-1 change from baseline, median ([1]; CVC 100 mg, Week 24): 429 pg/mL | hs-CRP change from baseline, mean ([1]; CVC 100 mg, Week 24): -0.16 mg/dL | hs-CRP change from baseline, median ([1]; CVC 100 mg, Week 24): -0.03 mg/dL | sCD14 (original values) change from baseline, mean ([1]; CVC 100 mg, Week 24): -190000 pg/mL | sCD14 (original values) change from baseline, median ([1]; CVC 100 mg, Week 24): -180000 pg/mL | sCD14 (original values) change from baseline, mean ([1]; CVC 100 mg, Week 32): 110000 pg/mL | sCD14 (original values) change from baseline, median ([1]; CVC 100 mg, Week 32): 120000 pg/mL | D-dimer change from baseline, mean ([1]; CVC 100 mg, Week 48): -41 ng/mL | D-dimer change from baseline, median ([1]; CVC 100 mg, Week 48): -1.0 ng/mL | Fibrinogen change from baseline, mean ([1]; CVC 100 mg, Week 48): 11 mg/dL | Fibrinogen change from baseline, median ([1]; CVC 100 mg, Week 48): 15 mg/dL | IL-6 change from baseline, mean ([1]; CVC 100 mg, Week 48): 0.29 pg/mL | IL-6 change from baseline, median ([1]; CVC 100 mg, Week 48): 0.00 pg/mL | MCP-1 change from baseline, mean ([1]; CVC 100 mg, Week 48): 636 pg/mL | MCP-1 change from baseline, median ([1]; CVC 100 mg, Week 48): 523 pg/mL | hs-CRP change from baseline, mean ([1]; CVC 100 mg, Week 48): -0.08 mg/dL | hs-CRP change from baseline, median ([1]; CVC 100 mg, Week 48): -0.01 mg/dL | sCD14 (original values) change from baseline, mean ([1]; CVC 100 mg, Week 48): 100000 pg/mL | sCD14 (original values) change from baseline, median ([1]; CVC 100 mg, Week 48): 100000 pg/mL | sCD14 (original values) change from baseline, mean ([1]; CVC 200 mg, Week 12): -230000 pg/mL | sCD14 (original values) change from baseline, median ([1]; CVC 200 mg, Week 12): -210000 pg/mL | D-dimer change from baseline, mean ([1]; CVC 200 mg, Week 24): -64 ng/mL | D-dimer change from baseline, median ([1]; CVC 200 mg, Week 24): -50 ng/mL | Fibrinogen change from baseline, mean ([1]; CVC 200 mg, Week 24): -7 mg/dL | Fibrinogen change from baseline, median ([1]; CVC 200 mg, Week 24): -8 mg/dL | IL-6 change from baseline, mean ([1]; CVC 200 mg, Week 24): 0.81 pg/mL | IL-6 change from baseline, median ([1]; CVC 200 mg, Week 24): 0.00 pg/mL | MCP-1 change from baseline, mean ([1]; CVC 200 mg, Week 24): 753 pg/mL | MCP-1 change from baseline, median ([1]; CVC 200 mg, Week 24): 695 pg/mL | hs-CRP change from baseline, mean ([1]; CVC 200 mg, Week 24): -0.04 mg/dL | hs-CRP change from baseline, median ([1]; CVC 200 mg, Week 24): -0.04 mg/dL | sCD14 (original values) change from baseline, mean ([1]; CVC 200 mg, Week 24): -230000 pg/mL | sCD14 (original values) change from baseline, median ([1]; CVC 200 mg, Week 24): -190000 pg/mL | sCD14 (original values) change from baseline, mean ([1]; CVC 200 mg, Week 32): 20000 pg/mL | sCD14 (original values) change from baseline, median ([1]; CVC 200 mg, Week 32): -20000 pg/mL | D-dimer change from baseline, mean ([1]; CVC 200 mg, Week 48): -70 ng/mL | D-dimer change from baseline, median ([1]; CVC 200 mg, Week 48): -50 ng/mL | Fibrinogen change from baseline, mean ([1]; CVC 200 mg, Week 48): -10 mg/dL | Fibrinogen change from baseline, median ([1]; CVC 200 mg, Week 48): -13 mg/dL | IL-6 change from baseline, mean ([1]; CVC 200 mg, Week 48): -0.04 pg/mL | IL-6 change from baseline, median ([1]; CVC 200 mg, Week 48): 0.00 pg/mL | MCP-1 change from baseline, mean ([1]; CVC 200 mg, Week 48): 900 pg/mL | MCP-1 change from baseline, median ([1]; CVC 200 mg, Week 48): 756 pg/mL | hs-CRP change from baseline, mean ([1]; CVC 200 mg, Week 48): -0.18 mg/dL | hs-CRP change from baseline, median ([1]; CVC 200 mg, Week 48): -0.04 mg/dL | sCD14 (original values) change from baseline, mean ([1]; CVC 200 mg, Week 48): -40000 pg/mL | sCD14 (original values) change from baseline, median ([1]; CVC 200 mg, Week 48): -40000 pg/mL | Reduction of UUO-induced increase in composite Collagen Volume Fraction (CVF) ([2]; CVC 7 mg/kg/day oral, Day 5): 28.6±8.8% | Reduction of UUO-induced increase in composite Collagen Volume Fraction (CVF) ([2]; CVC 20 mg/kg/day oral, Day 5, one outlier excluded): 31.8±6.8% | Tolerability after UUO surgery ([2]; CVC 100 mg/kg/day group (N=9)): terminated early due to moribundity | Effect on obstructed kidney hydroxyproline content ([2]; CVC 7 and 20 mg/kg/day, Day 5): Neither dose of CVC tested affected UUO-induced increases in obstructed kidney hydroxyproline content | Collagen 1a1, Collagen 3α1, TGF-β1 and Fibronectin-1 mRNA expression in obstructed kidney [2, 3]: these reductions, compared with the UUO+vehicle-control group, did not reach statistical significance | Obstructed kidney cortical MCP-1, α-SMA and CTGF-1 mRNA expression [2, 3]: did not have significant effects | Effect on body weight relative to UUO+vehicle-control ([2]; Day 5, CVC 7 mg/kg/day oral, compound 1D11 3 mg/kg/day i.p.): no effect on body weight | Decrease in body weight relative to UUO+vehicle-control ([2]; Day 5, CVC 20 mg/kg/day oral): 5% | Obstructed or contralateral kidney weight or kidney weight index versus UUO+vehicle-control ([2]; Day 5, CVC 7 and 20 mg/kg/day, compound 1D11 3 mg/kg/day): No significant treatment effects

Reference: patent US20200268768A1, “CENICRIVIROC COMBINATION THERAPY FOR THE TREATMENT OF FIBROSIS” (Tobira Therapeutics, Inc., priority 2015, published 2020)
